These results are taken from EP3042903B1, “Substituted hetero-bicyclic compounds, compositions and medicinal applications thereof” (Impetis Biosciences Ltd., priority 2015, dated 2016).

In assay [1] the target is T1, Recombinant Human Bruton's tyrosine kinase (Btk) (Homo sapiens, UniProt Q06187).
T1 construct: Full length human BTK (hBTK, Genbank#NM_000061.2) was cloned into pFastBac-HTB vector; 6XHis (N); made in house; host or cells: Sf9 cells (Bac-to-Bac baculovirus expression system)
In words: Recombinant Human Bruton's tyrosine kinase (Btk) inhibition assay (HTRF KinEASE-TK). The class given is biochemical. The following applies: 20 ng/ml rhBtk, 77 µM ATP (KM), 1 µM TK-Biotin Substrate, 90 minutes; read-out: IC50 (nM) in recombinant hBTK assay. As for the experimental part:
Recombinant Human Bruton's tyrosine kinase (Btk) inhibition assay.
Full length human BTK (hBTK, Genbank#NM_000061.2) was cloned into pFastBac-HTB vector (Invitrogen, cat#10359-016). hBTK gene was expressed with N'-terminal 6XHis tag in Sf9 cells using Bac-to-Bac ^(R) Baculovirus expression system (Invitrogen, cat#10359-016) and the recombinant protein was purified by Ni-NTA method. The elution buffer for hBTK consisted of 50 mM Hepes pH 8.0, 300 mM NaCl, 10% glycerol, 1 mM dithiothreitol and 200 mM imidazole.
The inhibition assays were performed using the generic tyrosine kinase assay kit from Cis Bio (HTRF® KinEASE - TK™ # 62TK0PEB). The assay is based on the principle of fluorescence resonance energy transfer (FRET) between the Europium Cryptate labeled anti-phosphotyrosine antibody and streptavidin labeled fluorophore, XL-665. In an uninhibited kinase reaction the biotinylated peptide substrate (Tk-Biotin) gets phosphorylated at an intermediate tyrosine site which is captured by anti-phosphotyrosine antibody which eventually acts as a FRET donor. The streptavidin labeled XL-665 binds strongly to the Tk-Biotin substrate and act as a FRET acceptor. The resultant FRET signal is measured at 665 nm. A ratio of this specific fluorescence (665nm) to the background fluorescence (620nm), conferred by the free antibody, is directly proportional to the kinase activity.
The Btk inhibition assays were performed using 20 ng/ml of rhBtk in a final volume of 10µl reaction buffer containing 77 µM ATP and 1 µM TK-Biotin Substrate in 50 mM HEPES pH 7.0, 5mM MgCl2, 1mM DTT, 0.01% Tween 20 and 50nM SEB®; with a range of concentrations of the inhibitors. The kinase reaction was carried out at the KM of ATP (77 µM) as well as that of Tk-Biotin substrate (1 µM). After 90 minutes, the reaction was stopped by addition of SA-XL665 at a concentration of 62.5 nM in HTRF® detection buffer containing EDTA. Finally 5 µL of TK antibody-cryptate was added to the reaction and the plate was incubated for additional 60 minutes. The fluorescence was read using the FlexStation (Molecular Devices) with excitation at 340 nm and emissions at 620nm (for Cryptate) and 665nm (for FRET). A ratio of the 2 emissions was calculated for each well and expressed as follows: Specific signal = Ratio(Sample)−Ratio(Negative) [formula] Ratio = (665nm/620nm) × 10^4 [formula] Mean Ratio = ∑Ratio/3(triplicates) [formula]
For each data point, % inhibition is calculated based on uninhibited reaction which is considered as 100% activity over no enzyme or substrate controls. Dose response data is then fit using a four parameter logistic equation using GraphPad Prism 5 software to determine inhibition constant 50(IC50).
For orientation: Time-resolved FRET reads energy transfer from a long-lived donor to a nearby acceptor.

Assay [2] has as its system B cell activation as measured by CD69 expression in mouse splenocytes. In words: Inhibition of B cell activation as measured by CD69 expression in mouse splenocytes (flow cytometry). The class given is cell-based. The following applies: C57/BL6 splenocytes, 3 µg/mL goat anti-mouse IgM, 18-20 hours, CD69 +ve cells within CD19; read-out: IC50 (nM) in B cell activation assay in Mouse spleenocytes. An excerpt:
Inhibition of B cell activation as measured by CD69 expression in mouse splenocytes:
To test the effect of BTK inhibitors in suppressing B-cell receptor (BCR) mediated activation of B cells, we developed a flow cytometry based assay to analyze CD69 expression in B cell population among total splenocyte from the mouse. C57/BL6 mouse spleens were dissected out and splenocytes were isolated by mincing the tissue with a syringe plunger followed by RBC lysis (0.85% ammonium chloride, (Qualigens,Cat #21405) and several washes in PBS. Finally, cell were cultured in culture medium [RPMI medium (Sigma, Cat R6504) with 10% FBS (Gibco - Cat #10270).
Test compounds were diluted half log starting from 2 mM in 100% DMSO (Sigma, cat#D2650) (200X). 1x10^5 splenocytes were incubated with 1 µL of diluted test compounds in 200 µL culture medium in a U-bottom 96 well plate (Greiner) at 37°C with 5% CO2 for 30 minutes. Control wells received 1 µL of 100% DMSO without any compound. The cells were stimulated with 3 µg/mL goat anti-mouse IgM (Sigma, cat#M8644) and incubated for 18-20 hours. After the stimulation, cells were washed in cold PBS with 1% FBS and stained with 1:100 dilution of anti-CD69-PE (eBioscience, cat#12-0691-83) and anti-CD19-PE.Cy5 (eBioscience, cat#15-0193-83) for 1 hour on ice. Then the cells were washed 3 times with PBS with 1% FBS and analyzed by Guava Easycyte Mini flow cytometer system (Millipore). Flow cytometry data were analyzed using Weasel software (WEHI, Melbourne). B cells were gated using CD19 marker. Expression of CD69 was analyzed as percentage of CD69 +ve cells within CD19. Percent activity for each data point was calculated using following formula: [formula]
(§1) Percentage activity was fit using sigmoid dose response with variable slope logistic equation in GraphPad Prism 5 software to determine IC50.
(A flow cytometer gives signals particle by particle.)

Assay [3] has as its system B cell activation as measured by CD69 expression in Human whole blood. In words: Inhibition of B cell activation as measured by CD69 expression in Human whole blood (flow cytometry). The class given is cell-based. The following applies: heparinized human whole blood, anti-IgD antibody 30 µg/mL, 4 hours, CD69 positive cells among CD20 B cells. As to the method: Inhibition of B cell activation as measured by CD69 expression in Human whole blood
To test the effect of BTK inhibitors in suppressing B-cell receptor (BCR) mediated activation of B cells, we developed a flow cytometry based assay to analyze CD69 expression in B cell population in human whole blood. Freshly collected heparinized human whole blood (60 µL/well) was dispensed in 96-well U bottom plate (Greiner), treated with the test compound at a concentrations ranging from 10 µM to 0.3 nM (half log dilutions). 0.5% DMSO (Sigma, cat#D2650) was used as vehicle control. The whole blood was incubated with compounds for 1 hour, followed by stimulation with anti-IgD antibody (Goat Anti-Human IgD Antibody - affinity purified, Bethyl laboratories, cat#A80-106A) at a final concentration of 30 µg/mL at 37°C and 5% CO2 for 4 hours. Subsequently, 45 µL blood was transferred to 1.5 ml microcentrifuge tubes and 1.2 µL of anti-CD20-PE.Cy5 (BD Biosciences, cat#561761)and 1.6 µL of anti-CD69-PE (eBioscience, cat#12-0691-83) antibody were added and mixed properly by gently tapping the tubes. Blood was stained for 20 minutes at room temperature (RT). After antibody incubation, 1 mL pre-warmed 1X Lyse/Fix solution (BD Biosciences, cat#558049) was added and cells were incubated at RT for 10 minutes. Then the tubes were centrifuged at 450xg for 5 minutes at RT and supernatant was removed. Pellet was disrupted by gentle tapping, cells were washed with 1 mL freshly prepared wash buffer and centrifuged at 450xg for 5 minutes at RT. Supernatant was removed completely before resuspending cells in 200 µl of wash buffer and proceeded for acquisition in Guava Easy Cyte Mini instrument. Acquisition was done with following laser settings: FSC Gain: X 16, FSC fine gain 100%, SSC: 893V, GRN: 663V, YLW: 649V, RED: 802V, Threshold Parameters Offset: FSC 0.73 V Threshold 300 units. The cells were diluted in such a way so that cell conc. should not exceed 500 cells/µL and at least 5000 cells were acquired. Viable lymphocytes were gated from the forward and side scatter profile of cells and B cells were sub-gated based on CD20-PE.Cy5 staining. Percent of CD69-PE positive cells were calculated among B lymphocyte sub-gate using Weasel software. Percent activity for each data point was calculated using following formula: [formula]
as §1

T1 sequence (Q06187 whole entry): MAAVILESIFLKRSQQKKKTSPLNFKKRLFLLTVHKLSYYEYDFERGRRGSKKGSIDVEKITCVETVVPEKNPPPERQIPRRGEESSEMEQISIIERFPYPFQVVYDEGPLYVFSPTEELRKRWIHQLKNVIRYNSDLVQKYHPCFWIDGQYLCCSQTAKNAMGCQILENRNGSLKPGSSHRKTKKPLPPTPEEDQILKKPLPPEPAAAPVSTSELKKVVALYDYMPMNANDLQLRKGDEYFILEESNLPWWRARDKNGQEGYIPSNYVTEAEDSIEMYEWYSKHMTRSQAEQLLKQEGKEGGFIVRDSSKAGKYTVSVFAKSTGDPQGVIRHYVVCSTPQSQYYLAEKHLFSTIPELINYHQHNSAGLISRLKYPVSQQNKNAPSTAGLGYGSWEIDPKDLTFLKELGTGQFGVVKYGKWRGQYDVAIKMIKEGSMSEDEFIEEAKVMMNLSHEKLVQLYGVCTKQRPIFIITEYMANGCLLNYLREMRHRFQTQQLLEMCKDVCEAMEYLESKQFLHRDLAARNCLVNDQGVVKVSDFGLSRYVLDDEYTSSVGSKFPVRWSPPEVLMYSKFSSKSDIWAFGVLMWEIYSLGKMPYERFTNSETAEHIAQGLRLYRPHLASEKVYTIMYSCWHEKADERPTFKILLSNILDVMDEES

As a reminder, the IC50 is the point on the concentration scale where inhibition reaches its midpoint. Consider `O=C1c2c(F)cc(C3CC3)cc2OCCN1c1cc(F)cc(-c2ccnc3[nH]c(C4=CCN(C5COC5)CC4)cc23)c1CO` [Example 8, 8-cyclopropyl-6-fluoro-4-[5-fluoro-2-(hydroxymethyl)-3-[2-[1-(oxetan-3-yl)-3,6-dihydro-2H-pyridin-4-yl]-1H-pyrrolo[2,3-b]pyridin-4-yl]phenyl]-2,3-dihydro-1,4-benzoxazepin-5-one], for which the IC50 in assay [1] came out at 1.3 nM; in assay [2], 9 nM; in assay [3], 124 nM.
